# Measurements as given in patent publication US20240050735A1, “SYSTEMS AND METHODS FOR TREATING AND INHIBITING WOUND INFECTIONS” (priority 2020, published 2024).
# Several values for one entry are separate records, joined by “and”; a condition that tells them apart may be missing. Equal values may be shown once. Where a name gives a salt, the structure may show the parent alone. Read-outs that look alike come from different tables or passages of the source.
# Columns and labels:
# planktonic MRSA = assay: Time-killing test on planktonic MRSA in stationary phase; assay type: cell-based, Methicillin-resistant S. aureus (MRSA) USA300; conditions: 10 mg mL^−1 VAN, 4-day incubation
# Protocol: MRSA bacteria was cultured in LB media in a 37° C. water shaking bath overnight to reach the concentration of 1×10^8 CFU mL^−1. Then, they were diluted to 10^5 CFU mL^−1 in 96-well plates by adding different concentrations of VAN solutions. After incubation for 24 hours without shaking, MIC of VAN to inhibit MRSA growth was measured by a Biotek Synergy H1 hybrid multi-mode microplate reader (BioTek, Winooski, Vt., USA) at OD600. To evaluate the killing time of VAN to bacteria in stationary phase (1×10^8 CFU mL^−1), VAN powder was added to bacteria solution to obtain concentration of 1 mg mL^−1, 3 mg mL^−1, 5 mg mL^−1, and 10 mg mL^−1, respectively, while remaining MRSA concentration of 1×10^8 CFU mL^−1. After incubation in a 37° C. water bath for 1 day, 2 days, 3 days and 4 days, the CFU of MRSA cells was tested by the standard plate spread counting assay, respectively. The time-killing tests of DAP with different concentrations (0.1 mg mL^−1, 0.5 mg mL^−1, 1 mg mL^−1, and 5 mg mL^−1) on MRSA planktonic cells were also performed, with the incubation time up to 24 hours.
# MRSA biofilm = conditions: cited from earlier work
# S. aureus biofilms [1] = conditions: cited from earlier work
# S. aureus biofilms [2] = conditions: cited from earlier work; remark: listed apart in the source
# HDFa cells = assay: Cell toxicity of high concentration of antibiotics, LIVE/DEAD stain; assay type: cell-based, human; conditions: 4.5 mg mL^−1 VAN, 48 hour incubation
# Protocol: (§1) To evaluate the cell toxicity of the high concentration of antibiotics, HaCaT cells and HDFa cells were used. 2×10^4 HaCat cells and 2×10^3 HDFa cells were seeded in each well of a 96-well plate. After being cultured in an incubator under 37° C. and 5% CO2 for 24 hours, 4.5 mg mL^−1 VAN and 20 mg mL^−1 DAP were added to the culture media, respectively. Both HaCat cells and HDFa cells were treated by VAN for two days, and exposed to DAP for one day, respectively. The cell toxicity of the two cells at the end time points were evaluated by LIVE/DEAD stain and visualized by a confocal laser scanning microscope (CLSM, LSM 710, Zeiss, Germany).
# HaCaT cells = assay: as above; assay type: cell-based, human; conditions: 4.5 mg mL^−1 VAN, 48 hour incubation
# Protocol: as §1
# [3] = 0.3 mA cm^−2 for 4 hours; cited from earlier work
# [4] = tested on: S. aureus persister cells; conditions: even at 100×MIC; cited from earlier work
# [5] = assay type: in vitro ADME; conditions: for permeation coefficient (Pc): 1 mg mL^−1 VAN; for accumulated concentration in wound tissue: 1 mg mL^−1 VAN loaded
# Protocol: Investigations were also performed to determine the iontophoretic antibiotic delivery efficiency of the HIC-based biofilm treatment system 100 using high current intensities. These investigations included an ex vivo antibiotic delivery study using the same MRSA biofilm-infected porcine skin wound model as in the previous section. Vancomycin (VAN) was used here as a model drug, since it is the FDA-approved antibiotic and is the clinical gold standard for combating S. aureus infections.
# First the VAN delivery efficiency was tested at different current intensities (from 0 mA cm^−2 (passive diffusion) to 75 mA cm^−2) applied by the HIC-based biofilm treatment system 100 for 1 hour. The drug/buffer chamber 114 of the working device 104 was loaded with 1 mg mL^−1 VAN in this study. The anode side was used as the working device 104 because VAN required anodal iontophoresis. The accumulated concentration of VAN in biofilm infected skin wound was measured immediately after iontophoresis using high performance liquid chromatography (HPLC). […] When 75 mA cm^−2 was used, the VAN concentration in wound tissue increased to 4.5±0.52 mg g^−1. The VAN concentration in wound tissue after passive diffusion, 0.5 mA cm^−2, and 19 mA cm^−2 iontophoresis were also measured. However, they could not be distinguished from the background interference of the residual biofilm components, so no quantitative results were obtained (data not shown). Importantly, the VAN concentration delivered by 75 mA cm^−2 iontophoresis for 1 hour exceeded the minimal biofilm eradication concentration (MBEC) of VAN reported for MRSA biofilm, which was 4 mg g^−1. The ability to deliver a lethal antibiotic concentration into biofilm-infected wounds within a short period of time was critical for biofilm treatment as it would minimize the chance for bacteria to develop adaptive tolerance.
# The fetal pig skin samples (approximately 30×30 mm) were immersed in 10% (v/v) bleach for 5 minutes after hair removal. Then, skin samples were sterilized in 70% ethanol for 30 minutes. The surface of skin sample was further cleaned by 10% povidone-iodine and 70% isopropanol to prevent contamination. A 6-mm disposable biopsy punch was used to create an excisional wound. Samples were put into sterile 10-cm petri-dishes filled with sterile PBS (6 mL). The wound was then inoculated with 1×10^8 CFU mL^−1 MRSA bacteria solution (20 μL). The bacteria were allowed to grow in a 37° C. Heratherm™ compact microbiological incubator (ThermoFischer Scientific™, Waltham, Mass., USA) for 48 hours to form mature biofilms.
# To evaluate the antibiotic delivery efficacy of VAN by high-intensity current, biofilm infected fetal pig skin wound was used. The DAP test setup was same as that of VAN, except no PBS chamber 122 was used. Instead, the inner surface of the skin wound contacted directly to the hydrogel 120 of the counter device 106. To evaluate the effect of electrical current intensity on the drug delivery efficacy, different current intensities from 0 to 75 mA cm^−2 were applied. To evaluate the effect of loading concentration of antibiotics, different concentrations of VAN and DAP from 1 mg mL^−1 to 10 mg mL^−1 were used. Since VAN is […] and DAP is negatively charged under physiological environment, anode HIC-based device was placed facing biofilm for VAN iontophoresis, and cathode HIC-based device was placed facing biofilm for DAP iontophoresis. Samples were collected immediately after different treatments. The concentrations of antibiotics delivered into skin wound samples were measured by high-performance liquid chromatography (HPLC). The permeation coefficient (Pc, cm s^−1) was then calculated (Pc=J/C, where J is antibiotic delivery flux in tissue samples (μg (cm^2s)^−1, C is the loading concentration of antibiotic solution (μg m L^−1)). […]
compound,measurement,setting,value
"CN[C@H](CC(C)C)C(=O)N[C@H]1C(=O)N[C@@H](CC(N)=O)C(=O)N[C@H]2C(=O)N[C@H]3C(=O)N[C@H](C(=O)N[C@H](C(=O)O)c4cc(O)cc(O)c4-c4cc3ccc4O)[C@H](O)c3ccc(c(Cl)c3)Oc3cc2cc(c3O[C@@H]2O[C@H](CO)[C@@H](O)[C@H](O)[C@H]2O[C@H]2C[C@](C)(N)[C@H](O)[C@H](C)O2)Oc2ccc(cc2Cl)[C@H]1O [VAN, Vancomycin hydrochloride]",bacterial count after incubation (from 10^8 CFU g^−1),planktonic MRSA,10^6 CFU g^−1
same,minimal biofilm eradication concentration (MBEC),MRSA biofilm,4 mg/g
same,biofilm bacterial density reduction,S. aureus biofilms [1]; 2 mA (0.17 mA cm^−2) for 24 hours with 32 μg mL^−1 vancomycin,1 log10 scale
same,antibacterial effect,S. aureus biofilms [1]; vancomycin alone,no antibacterial effect
same,diffusion coefficient in S. aureus biofilms,S. aureus biofilms [2]; 2012 study,0.2 μm 2 s^−1
same,slower than its diffusion in water,S. aureus biofilms [2]; S. aureus biofilms,"more than 1,000 times"
same,viability of skin cells,HDFa cells,not affected
same,viability of skin cells,HaCaT cells,not affected
same,amount delivered into the epidermis by iontophoresis vs passive diffusion,[3],2.1 times
same,killing of S. aureus persister cells,[4],not capable of killing
same,conventional Pc lower than Pc by 75 mA cm^−2 HIC iontophoresis,[5]; 0.31 mA cm^−2 conventional vs 75 mA cm^−2 HIC,980 times
same,permeation coefficient (Pc),"[5]; 38 mA cm^−2, 1 hour",112.0±20.97 ×10^−6 cm s^−1
same,accumulated concentration in wound tissue,"[5]; 38 mA cm^−2, 1 hour",2.5 ± 0.32 mg/g
same,permeation coefficient (Pc),"[5]; 75 mA cm^−2, 1 hour",216.5±18.96 ×10^−6 cm s^−1
same,accumulated concentration in wound tissue,"[5]; 75 mA cm^−2, 1 hour, hydrochloride",4.5 ± 0.52 mg/g and 4.5 mg/g
same,concentration in wound tissue,"[5]; 75 mA cm^−2, 1 hour, 5 mg mL^−1 VAN loaded",more than 16 mg g^−1
same,concentration in wound tissue,"[5]; 75 mA cm^−2, 1 hour, 10 mg mL^−1 VAN loaded",more than 16 mg g^−1
